Data set [1] concerns HIV-1 isolate 4 (K65R+M184V discriminative mutant). Description: PhenoSense HIV assay, Example 2d. In kind it is cell-based.
In data set [2] the test system is HIV-1 TAM primer rescue-related patient isolate 19 (M184V + TAMs). Description: PhenoSense HIV assay, Example 2b. Format: cell-based. The protocol:
(§1) The susceptibility of the compounds of the invention, measured as the plasma metabolite 2′,3′-dideoxy, 3′-C-hydroxymethyl-β-D-erythropentofuranosylcytosine on HIV-1 isolates from patient plasma samples that bear typical TAM primer rescue mutant resistant genotypes is determined by the commercially available PhenoSense HIV assay (described in Petropoulos, C J et al., (2000) Antimicrob. Agents Chemother. 44:920-928 and performed by ViroLogics, Inc). The assay is performed by amplifying the protease (PR)—RT segment of the HIV pol gene from patient plasma and inserting the amplification products into a modified HIV-1 vector derived from an NL4-3 molecular clone.
Viral stocks are prepared by co-transfecting 293 cell cultures with recombinant viral DNA vector and an expression vector that produces the amphotropic murine leukemia virus envelope proteins. Pseudotyped virus particles are harvested from the transfected cell cultures and are used to infect fresh 293 cell cultures. […] Drug susceptibility is measured by adding serial concentrations of the compound of the invention and the reference compounds to the cells. Drugs that inhibit virus replication reduce luciferase signal in a dose-dependent manner, providing a quantitative measure of drug susceptibility. […]

In data set [3] the test system is TAM primer rescue-related resistant HIV-1 isolates in PBMC. Description: Drug susceptibility assay in PBMC culture (p24 antigen). Format: cell-based. On the procedure:
The antiviral performance of the compound of the invention against additional TAM primer rescue-related resistant HIV isolates was assayed in a PBMC culture. Isolates of HIV-1 were generated and expanded to high titer by co-cultivation of infected patient PBMC with PHA-stimulated donor PBMC (Virology Manual for ACTG HIV Laboratories). The cell-free supernatants were harvested, sequenced, and stored in aliquots at −70° C. for drug susceptibility assays.
In vitro drug susceptibility assays were performed using a modified ACTG/DOD consensus method (Virology Manual for ACTG HIV laboratories). PBMCs were pre-infected with viral stocks for 4 hrs at 37° C. in a humidified atmosphere of 5% CO2 following 4 hr incubation. Infected cells were washed twice in media and pipetted into a microtiter plate with eight serial drug dilutions. Each well contained 100,000 pre-infected PBMC and all drug dilutions were made with cell culture medium. The drug dilutions were chosen to span the 50% inhibitory concentration (IC50) for each single drug. Control wells containing cells and virus were co-incubated on each plate. After a 7-day incubation at 37° C. in a […] atmosphere of 5% CO2, viral growth was determined using a p24 antigen assay on supernatants (Abbott Laboratories, Chicago, USA). The percent inhibition of viral growth compared to the control well, which contained no drug, was calculated and expressed as fold changes (reductions in compounds susceptibility) compared to the control well. The reference compound AZT was run in parallel with the compound of the invention.
A cluster of representative of primer rescue-related mutant virus was selected that harbors the essential feature of primer rescue-related TAM resistant RT mutations. Strains with mutations at position M41L, D67N, K70R, L210W, T215Y/F and K219Q/E in various combinations with or without discriminative mutant M184V were used as indicated in Table 4.

Data set [4] has as its system HIV-1 primer rescue-related TAM patient isolates 20 and 21. Description: PhenoSense HIV assay, Example 2a. In kind it is cell-based. As to conditions: for potency against patient virus compared to wildtype: isolates 20 and 21. On the procedure: as §1
(§2) Viral stocks are prepared by co-transfecting 293 cell cultures with recombinant viral DNA vector and an expression vector that produces the amphotropic murine leukemia virus envelope proteins. Pseudotyped virus particles are harvested from the transfected cell cultures and are used to infect fresh 293 cell cultures. The recombinant viral DNA contains a luciferase gene cassette within the HIV env gene region and the production of luciferase in target cells is dependent on the completion of one round of virus replication. Drug susceptibility is measured by adding serial concentrations of the compound of the invention and the reference compounds to the cells. Drugs that inhibit virus replication reduce luciferase signal in a dose-dependent manner, providing a quantitative measure of drug susceptibility.
Wild-type HIV virus is used as the reference. Here, the inhibition of the patient isolate 20 and 21 strains is expressed as the fold change in reduction of susceptibility to the treatment drug as compared to parallel runs of the reference. The following antiviral drugs were tested: AZT, 3TC, TNF, ABC, d4T, FTC and the compound of the invention, as the plasma metabolite 2′,3′-dideoxy, 3′-C-hydroxymethyl-β-D-erythropentofuranosylcytosine.

The conditions of data set [5]: reference compounds (markers) of the permeability assay; cited from earlier work.
Data set [6] deals with HIV-1 primer rescue-related patient isolates 31, 32 and 35 (T69S+XX+TAMs). Description: PhenoSense HIV assay, Example 2c. In kind it is cell-based. On the procedure:
as §1, §2
Continuous challenge of patients with antiretroviral agents results in the emergence of MDR. A T69S mutation with a 6-bp insertion between amino acids 68 and 70 in the finger region of RT is often seen in combination with various forms of TAMs and contributes to an enhanced primer rescue activity. A cluster of MDR (with different forms of amino acid insertion(s)) in combination with TAM was chosen, as outlined in Table 3.

The structures appear in SMILES notation. A value given as a limit tells only on which side of the number the result lay.

As to `Cc1cn([C@H]2C[C@H](N=[N+]=[N-])[C@@H](CO)O2)c(=O)[nH]c1=O` [AZT, zidovudine], the “FC value (fold change in susceptibility)” value in data set [1] worked out at 1.11. The “activity against the resistant virus” value in data set [2] was “lost activity”. Further, the FC value in data set [3] (isolate 7086 (T215V)) amounted to 3.0. Further, the “drop in FC value” in data set [3] (most of the selected primer rescue mutants) is “a couple of hundred folds”. Moreover, the “fold reduction in susceptibility vs wild-type HIV” value in data set [4] (isolates 20 and 21, isolate not specified) is 451 fold.

Turning to `Nc1nc(=O)n([C@@H]2CS[C@H](CO)O2)cc1F` [FTC, emtricitabine], in data set [1], the “FC value (fold change in susceptibility)” value was > 40. Moreover, in data set [4], the “potency against patient virus compared to wildtype” value (from here on “potency … compared to wildtype”) was “lost potency”.

Consider `CN(Cc1cnc2nc(N)nc(N)c2n1)c1ccc(C(=O)N[C@@H](CCC(=O)O)C(=O)O)cc1` [Methotrexate], for which the “% absorption in man” value in data set [5] was 20%.

`OC[C@@H](O)[C@@H](O)[C@H](O)[C@H](O)CO` [Mannitol]: the “% absorption in man” value in data set [5] is 16%.

Regarding `Cc1cn([C@H]2C=C[C@@H](CO)O2)c(=O)[nH]c1=O` [d4T, stavudine], the “FC value (fold change in susceptibility)” value in data set [1] stood at 0.71. Also, the “potency … compared to wildtype” value in data set [4] is reported as “lost potency”.

On to `Nc1nc(NC2CC2)c2ncn([C@H]3C=C[C@@H](CO)C3)c2n1` [ABC, abacavir], for which the “FC value (fold change in susceptibility)” value in data set [1] is reported as > 9.0. In addition, in data set [4], the “potency … compared to wildtype” value is “lost potency”.

As for `N[C@@H](Cc1ccccc1)C(=O)O` [L-Phenylalanine], the “% absorption in man” value in data set [5] is 100%.

In the case of `C[C@H](Cn1cnc2c(N)ncnc21)OCP(=O)(O)O` [TFN, tenofovir], the “potency … compared to wildtype” value in data set [4] is given as “lost potency”.

Regarding `Nc1ccn([C@H]2C[C@H](CO)[C@@H](CO)O2)c(=O)n1` [2′,3′-dideoxy, 3′-C-hydroxymethyl-β-D-erythropentofuranosylcytosine], the “FC value (fold change in susceptibility)” value in data set [1] is 3.88. Further, the “fold difference in susceptibility compared to wild type HIV” value in data set [2] is reported as 1.78 fold. The “fold change in susceptibility” value in data set [6] (isolate 32) was found to be 2.79 fold; in data set [6] (isolate 35), 4.29 fold. In addition, the “change in drug susceptibility compared with six reference antivirals” value in data set [6] (isolates 31, 32 and 35) is recorded as “smallest change in drug susceptibility”. The “highest FC value over all 8 isolates” value in data set [3] (all 8 isolates of Table 4) is recorded as ≤ 2.7. Also, the “fold reduction in susceptibility vs wild-type HIV” value is listed as 1.0 fold in data set [4] (isolate 20) and < 1.0 fold in data set [4] (isolate 21).

With `Nc1ccn([C@@H]2CS[C@H](CO)O2)c(=O)n1` [Example 3TC, lamivudine], in data set [1], the “FC value (fold change in susceptibility)” value is given as > 200.

The record behind these values is patent US7888367B2, “1-[2′,3′ -dideoxy-3′ C-(hydroxymethyl)—beta-D-erythro-pentofuranosyl] cytosine derivatives as HIV” (Medivir AB, priority 2005, dated 2011).
